Values of other authors as cited in US20090047276A1, “METHODS FOR […] OR TISSUE RE[…] A […]” (UNIVERSITY OF WASHINGTON, priority 2007, published 2009).

What was measured:
[1] = test system: GSK-3; conditions: literature values (Ring et al. 2003; Cline et al. 2002); read-out: half-maximal effective concentration [EC50]
[2] = test system: GSK-3; conditions: literature values (Ring et al. 2003; Cline et al. 2002)

Structure (SMILES) | EC50 [1] [nM] | selectivity for GSK-3 [2]
O=[N+]([O-])c1ccc(NCCNc2ncc(-c3ncc[nH]3)c(-c3ccc(Cl)cc3Cl)n2)nc1 [CHIR-837] | 375 | > 5,000 fold
